Each block holds one compound with its values, some of them ahead of it. Calls of active or inactive are those of the source. No cut-off for these calls is given here.
Tests used:
[1] = (§1) Inhibition of rat liver Alpha-glucosidase II using p-nitrophenyl alpha D-glucopyranoside substrate
HL-60 [2] = test: Inhibition of Alpha-glucosidase I in human HL60 cells using Glc3Man9GlcNAc2 substrate after 24 hrs by HPLC analysis; format: cell-based
[3] = (§2) Inhibition of rat liver Alpha-glucosidase I using Glc3Man9GlcNAc2 substrate
Rattus norvegicus [4] = species: Rattus norvegicus; test: as §1
Rattus norvegicus [5] = species: Rattus norvegicus; test: as §2
[6] = Inhibition of rat liver Alpha-glucosidase II
HL-60 [7] = test: Inhibition of Alpha-glucosidase II in human HL60 cells using 2-Anthranilic acid labelled NB-DNJ substrate after 24 hrs by HPLC analysis relative to control; format: cell-based
Rattus norvegicus [8] = species: Rattus norvegicus; test: Inhibition of rat liver Alpha-glucosidase II upto 500 uM using Glc1Man5GlcNAc1 substrate after 90 mins by NP-HPLC analysis
Rattus norvegicus [9] = species: Rattus norvegicus; test: Inhibition of rat liver Alpha-glucosidase II upto 500 uM using Glc2Man7GlcNAc2 substrate after 2 hrs by NP-HPLC analysis
HL-60 [10] = test: Inhibition of Alpha-glucosidase II in human HL60 cells assessed as Glc1Man4GlcNAc1 formation using 2-Anthranilic acid labelled NB-DNJ substrate by HPLC analysis; format: cell-based
[11] = Inhibition of rat liver Alpha-glucosidase II using Glc1Man5GlcNAc1 substrate after 90 mins by NP-HPLC analysis
[12] = Inhibition of rat liver Alpha-glucosidase II using Glc2Man7GlcNAc2 substrate after 2 hrs by NP-HPLC analysis

Structure (SMILES): N[C@H]1C=C(CO)[C@@H](O)[C@H](O)[C@H]1O [VALIENAMINE]
- IC50 [1]: 1000 µM
- inhibition (HL-60 [2]): inactive
- IC50 [3]: 780 µM

Structure (SMILES): CO[C@H]1O[C@H](CO)[C@@H](O)[C@H](N[C@H]2[C@H](O)[C@H](O)[C@@H](O)[C@H](O)[C@H]2O)[C@H]1O
- inhibition (Rattus norvegicus [4]): inactive
- inhibition (Rattus norvegicus [5]): inactive

Structure (SMILES): CO[C@H]1O[C@H](CN[C@@H]2C=C(CO)[C@@H](O)[C@H](O)[C@H]2O)[C@@H](O)[C@H](O)[C@H]1O
- inhibition (HL-60 [7]): inactive
- inhibition (Rattus norvegicus [8]): inactive
- inhibition (Rattus norvegicus [9]): inactive

Structure (SMILES): CO[C@H]1O[C@H](CO)[C@@H](O)[C@H](O)[C@H]1N[C@H]1C=C(CO)[C@@H](O)[C@H](O)[C@H]1O
- inhibition (Rattus norvegicus [4]): inactive
- inhibition (Rattus norvegicus [5]): inactive

Structure (SMILES): CO[C@H]1O[C@H](CO)[C@@H](O)[C@H](N[C@H]2C=C(CO)[C@@H](O)[C@H](O)[C@H]2O)[C@@H]1O
- inhibition (HL-60 [10]): Active
- IC50 [11]: 236 µM
- inhibition (Rattus norvegicus [9]): inactive

Continued, in another order:

- IC50 [6]: 4.6 µM
Structure (SMILES): CCCCN1C[C@H](O)[C@@H](O)[C@H](O)[C@H]1CO

- inhibition (Rattus norvegicus [8]): inactive
- inhibition (Rattus norvegicus [9]): inactive
Structure (SMILES): CO[C@H]1O[C@H](CN[C@H]2C=C(CO)[C@@H](O)[C@H](O)[C@H]2O)[C@@H](O)[C@H](O)[C@H]1O
- inhibition (HL-60 [7]): inactive

- IC50 [11]: 143 µM
- IC50 [12]: 72 µM
Structure (SMILES): CO[C@H]1O[C@H](CO)[C@@H](O)[C@H](N[C@H]2C=C(CO)[C@@H](O)[C@H](O)[C@H]2O)[C@H]1O
- inhibition (HL-60 [10]): Active

Reference: ChEMBL document CHEMBL1821593, “Synthesis and α-Glucosidase II inhibitory activity of valienamine pseudodisaccharides relevant to N-glycan biosynthesis” (Bioorg Med Chem Lett, 2011)
